# In patent publication US8835472B2, “Compounds, pharmaceutical compositions and uses thereof” (Boehringer Ingelheim International GmbH, priority 2010, dated 2014):
# Target: human ACC2 (Homo sapiens (Human), UniProt O00763)
# Experiment: ACC2 assay, spectrophotometric 384 well assay (NADH-linked, coupled lactate dehydrogenase/pyruvate kinase reaction)
# Type: biochemical
# Settings: hACC2 construct lacking the 128 N-terminal amino acids; 25° C., 340 nm over 15 minutes
# Procedure: Spectrophotometric 384 Well Assay
# Malonyl CoA formation by acetyl CoA carboxylases is stoichometrically linked to the consumption of ATP. ACC2 activity is measured in a NADH-linked kinetic method measuring ADP generated during the ACC reaction using a coupled lactate dehydrogenase/pyruvate kinase reaction.
# For biological testing, a human ACC2 construct which lacks the 128 amino acids at the N-terminus for increased solubility (nt 385-6966 in Genbank entry AJ575592) is cloned. The protein is then expressed in insect cells using a baculoviral expression system. Protein purification is performed by anion exchange.
# All compounds are dissolved in dimethyl sulfoxide (DMSO) to a concentration of 10 mM.
# Assay reactions are then carried out in 384-well plates, with hACC2 in an appropriate dilution and at final assay concentrations (f.c.) of 100 mM Tris (pH 7.5), 10 mM trisodium citrate, 25 mM KHCO3, 10 mM MgCl2, 0.5 mg/mL BSA, 3.75 mM reduced L-glutathione, 15 U/mL lactate dehydrogenase, 0.5 mM phosphoenolpyruvate, 15 U/mL pyruvate kinase, compounds at different concentrations at final DMSO concentrations of 1%.
# The enzymatic reaction is then started by addition of a mixture of NADH, acetyl Coenzyme A (both 200 μM f.c.) and ATP (500 uM f.c.). The decrease of the optical density (slope S) is then determined at 25° C. at a wavelength of 340 nm over 15 minutes in a spectrophotometric reader.
# Each assay microtiter plate contains wells with vehicle instead of compound as controls for the non-inhibited enzyme (100% CTL; ‘HIGH’) and wells without acetyl-CoA as controls for non-specific NADH degradation (0% CTL; ‘LOW’).
# The slope S is used for calculation of % CTL=(S(compound)−S(‘LOW’))/(S(‘HIGH’)−S(‘LOW’))*100. Compounds will give values between 100% CTL (no inhibition) and 0% CTL (complete inhibition).
# For IC50 value determination, the sample slope in the presence of the test compound after subtraction of the low controls (S(compound)−S(‘LOW’)) are used. An IC50 value is derived from the compound slopes at different dosages after subtraction of the low controls (S(compound)−S(‘LOW’)) by non-linear regression curve fitting (equation y=(A+((B−A)/(1+((C/x)^D))))).
# Sequence of human ACC2 (O00763 129-2458): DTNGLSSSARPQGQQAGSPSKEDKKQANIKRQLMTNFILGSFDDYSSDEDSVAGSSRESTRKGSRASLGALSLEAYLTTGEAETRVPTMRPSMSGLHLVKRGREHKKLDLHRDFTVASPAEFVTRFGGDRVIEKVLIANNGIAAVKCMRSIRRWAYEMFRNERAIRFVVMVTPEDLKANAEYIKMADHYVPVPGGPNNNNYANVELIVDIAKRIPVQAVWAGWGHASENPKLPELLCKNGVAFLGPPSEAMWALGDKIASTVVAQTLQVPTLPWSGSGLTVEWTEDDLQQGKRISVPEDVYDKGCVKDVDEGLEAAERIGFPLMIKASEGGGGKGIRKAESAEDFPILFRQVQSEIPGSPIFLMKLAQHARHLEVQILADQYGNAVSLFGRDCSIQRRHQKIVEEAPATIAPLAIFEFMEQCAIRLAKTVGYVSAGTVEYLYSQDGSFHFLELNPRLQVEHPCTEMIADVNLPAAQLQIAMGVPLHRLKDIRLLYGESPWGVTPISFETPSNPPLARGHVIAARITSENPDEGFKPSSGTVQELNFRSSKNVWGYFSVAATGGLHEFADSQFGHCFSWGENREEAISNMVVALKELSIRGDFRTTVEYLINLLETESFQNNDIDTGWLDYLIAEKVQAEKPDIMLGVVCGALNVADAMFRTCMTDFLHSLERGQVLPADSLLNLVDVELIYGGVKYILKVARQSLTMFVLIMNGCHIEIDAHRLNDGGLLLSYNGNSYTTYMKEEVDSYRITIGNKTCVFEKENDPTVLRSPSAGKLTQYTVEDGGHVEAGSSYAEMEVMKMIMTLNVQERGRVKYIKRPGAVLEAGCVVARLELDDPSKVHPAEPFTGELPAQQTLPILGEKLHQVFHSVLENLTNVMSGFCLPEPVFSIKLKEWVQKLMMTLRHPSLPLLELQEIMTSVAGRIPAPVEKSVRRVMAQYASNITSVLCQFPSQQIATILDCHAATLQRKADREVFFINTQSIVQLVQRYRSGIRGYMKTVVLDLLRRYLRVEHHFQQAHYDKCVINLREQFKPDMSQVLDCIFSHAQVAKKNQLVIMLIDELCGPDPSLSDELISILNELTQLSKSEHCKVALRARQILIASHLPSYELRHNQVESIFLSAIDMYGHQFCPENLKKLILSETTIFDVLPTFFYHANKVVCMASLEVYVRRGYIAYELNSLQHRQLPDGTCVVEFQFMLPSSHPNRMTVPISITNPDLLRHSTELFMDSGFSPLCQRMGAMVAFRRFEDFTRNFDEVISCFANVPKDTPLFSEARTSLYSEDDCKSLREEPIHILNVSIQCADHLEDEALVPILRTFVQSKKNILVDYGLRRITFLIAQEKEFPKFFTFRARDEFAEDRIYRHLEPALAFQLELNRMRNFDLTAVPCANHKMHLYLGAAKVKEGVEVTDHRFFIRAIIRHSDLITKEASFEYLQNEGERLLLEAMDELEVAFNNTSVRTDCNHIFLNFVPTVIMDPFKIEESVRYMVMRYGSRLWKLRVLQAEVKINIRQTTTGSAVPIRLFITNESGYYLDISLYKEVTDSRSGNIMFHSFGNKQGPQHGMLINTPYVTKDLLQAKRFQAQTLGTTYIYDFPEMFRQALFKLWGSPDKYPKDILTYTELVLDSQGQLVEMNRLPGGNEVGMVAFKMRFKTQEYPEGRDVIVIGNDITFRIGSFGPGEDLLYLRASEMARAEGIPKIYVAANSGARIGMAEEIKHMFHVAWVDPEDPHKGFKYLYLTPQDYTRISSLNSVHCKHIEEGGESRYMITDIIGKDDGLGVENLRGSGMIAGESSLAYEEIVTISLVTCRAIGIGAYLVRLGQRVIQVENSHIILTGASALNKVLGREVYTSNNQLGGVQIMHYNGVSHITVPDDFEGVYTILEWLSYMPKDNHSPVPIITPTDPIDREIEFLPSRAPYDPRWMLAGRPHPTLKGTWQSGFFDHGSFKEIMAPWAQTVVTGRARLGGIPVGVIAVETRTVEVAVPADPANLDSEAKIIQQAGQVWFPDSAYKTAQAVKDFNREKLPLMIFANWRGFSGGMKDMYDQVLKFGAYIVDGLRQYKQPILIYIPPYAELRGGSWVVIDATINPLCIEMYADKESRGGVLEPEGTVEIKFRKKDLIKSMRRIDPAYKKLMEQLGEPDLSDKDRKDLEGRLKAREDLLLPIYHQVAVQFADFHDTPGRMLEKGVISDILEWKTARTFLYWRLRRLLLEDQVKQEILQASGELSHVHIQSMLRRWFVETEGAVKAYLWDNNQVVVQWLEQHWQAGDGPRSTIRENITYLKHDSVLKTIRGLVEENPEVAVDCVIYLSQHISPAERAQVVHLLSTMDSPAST
row,Compound,IC50
1,CCCCOc1ccc(C#Cc2ccc(CC(C)NC(C)=O)cc2)nn1 (stereo not shown) [Example 2.88],880 nM
2,CC(=O)NC(C)Cc1ccc(C#Cc2ccc(CCO)cc2)cc1 (stereo not shown) [Example 2.18],2200 nM
3,CCCOc1ccc(C#Cc2ccc(CC(C)NC(C)=O)cc2)cn1 (stereo not shown) [Example 2.27],280 nM
4,CC(CNC(=O)C(F)F)c1ccc(C#Cc2cnc(OC3CCC3)nc2)cc1 (stereo not shown) [Example 4.79],160 nM
5,COCc1ccc(C#Cc2ccc(CC(C)NC(C)=O)cc2)cc1 (stereo not shown) [Example 2.109],790 nM
6,CC(=O)NC(C)Cc1ccc(C#Cc2ccc(C(=O)NCC(F)(F)F)cc2)cc1 (stereo not shown) [Example 1.11],1700 nM
7,CC(=O)NC(C)Cc1ccc(C#Cc2ccc(C(F)(F)F)cc2Cl)cc1 (stereo not shown) [Example 2.3],1400 nM
8,COCCn1ccc(C#Cc2ccc(CC(C)NC(C)=O)cc2)cc1=O (stereo not shown) [Example 2.83],17700 nM
9,CC(=O)NC(C)c1ccc(C#Cc2ccc(OC3CCC3)cc2)cc1 (stereo not shown) [Example 2.53],120 nM
10,CCOc1ccc(C#Cc2ccc(CC(C)NC(=O)C(=O)CC)cc2)cc1 (stereo not shown) [Example 4.24],1000 nM
11,CC(=O)NC(C)c1ccc(C#Cc2ccc(OC(C)(C)C)cc2)cc1 (stereo not shown) [Example 2.44],420 nM
12,CCOc1ccc(C#Cc2ccc(CC(C)NC(=O)C(O)C(C)C)cc2)cc1 (stereo not shown) [Example 4.30],1700 nM
13,CC(=O)NC(C)Cc1ccc(C#Cc2cc3c(cc2C#N)OCO3)cc1 (stereo not shown) [Example 3.7],10600 nM
14,CCOc1cc(C#Cc2ccc(CC(C)NC(=O)C3CC3)cc2)ccn1 (stereo not shown) [Example 2.60],690 nM
15,CC(=O)NC(C)Cc1ccc(C#Cc2ccc(OC(C)C)nc2)cc1 (stereo not shown) [Example 2.21],240 nM

# More lines, now with the values ahead:
row,IC50,Compound
1,680 nM,CC(=O)NC(C)Cc1ccc(C#Cc2ccnc(N(C)CC(F)(F)F)n2)cc1 (stereo not shown) [Example 11.33]
2,210 nM,CCCNc1ncc(C#Cc2ccc(CC(C)NC(C)=O)cc2)cn1 (stereo not shown) [Example 13.2]
3,9600 nM,CCOc1ccc(C#Cc2ccc(C(C)NC(=O)NCC(=O)O)cc2)cc1 (stereo not shown) [Example 6.4]
4,1600 nM,CC(=O)NC(C)Cc1ccc(C#Cc2ccc(C(=O)NC3CCCC3)cc2)cc1 (stereo not shown) [Example 8.4]
5,7200 nM,COc1ccc(Nc2nccc(C#Cc3ccc(CC(C)NC(C)=O)cc3)n2)cn1 (stereo not shown) [Example 11.5]
6,6400 nM,COCCn1cncc1COc1ccc(C#Cc2ccc(CC(C)NC(C)=O)cc2)cc1 (stereo not shown) [Example 9.34]
7,1000 nM,COc1ccccc1Oc1ncc(C#Cc2ccc(CC(C)NC(C)=O)cc2)cn1 (stereo not shown) [Example 12.46]
8,390 nM,CC(=O)NC(C)Cc1ccc(C#Cc2ccnc(N3CCC(C)(C)C3)n2)cc1 (stereo not shown) [Example 11.24]
9,170 nM,CC(=O)NC(C)CCc1ccc(C#Cc2ccc(OCC3CC3)cc2)cc1 (stereo not shown) [Example 14.12]
10,90 nM,CCCCOc1ccc(C#Cc2ccc(CC(C)NC(=O)C3CC3)cc2)cc1 (stereo not shown) [Example 14.31]
11,500 nM,CC(=O)NC(C)Cc1ccc(C#Cc2ccc(OCc3cnco3)cc2)cc1 (stereo not shown) [Example 9.41]
12,13000 nM,CC(=O)NC(C)Cc1ccc(C#Cc2ccc(C(=O)NCc3cccnc3)cc2)cc1 (stereo not shown) [Example 8.3]
13,5900 nM,CC(=O)NC(C)Cc1ccc(C#Cc2ccnc(NC(C)C3CC3)n2)cc1 (stereo not shown) [Example 11.19]
14,2200 nM,CCOc1ccc(C#Cc2ccc(C(C)NC(=O)Nc3cccnc3)cc2)cc1 (stereo not shown) [Example 6.2]
15,70 nM,"CCCOc1ccc(C#Cc2ccc(CC(C)NC(C)=O)cc2)cc1 (stereo not shown) [Example 24.1, N-{1-Methyl-2-[4-(4-propoxy-phenylethynyl)-phenyl]-ethyl}-acetamide]"
16,200 nM,CCNc1ncc(C#Cc2ccc(CC(C)NC(=O)N(C)C)cc2)cn1 (stereo not shown) [Example 13.26]
17,13400 nM,CCCOc1cc(C#Cc2ccc([C@@H](C)NC(C)=O)cc2)ccn1 [Example 14.22]
18,250 nM,CCOc1ccc(C#Cc2ccc(CC(C)NS(=O)(=O)C3CC3)cc2)cc1 (stereo not shown) [Example 5.1]
19,70 nM,"CCCOc1ccc(C#Cc2ccc(C(C)CNC(C)=O)cc2)cc1 (stereo not shown) [Example 32.1, N-{2-[4-(4-Propoxy-phenylethynyl)-phenyl]-propyl}-acetamide]"
